For test [1], the system named is Escherichia coli. The experiment in a line: microbe, parasite or virus in culture. To be noted: ATCC 25922, 18 h, ASSAY_TEST Inhibition of Bacterial Growth, detection method Absorption (OD600), MEDIA CAMHB, plate type 384well, NBS, CORNING #3640.
Description: Antibacterial activity against Escherichia coli ATCC 25922 (CO-ADD:GN_001); MIC in CAMBH media using NBS plates, by OD(600)
Test [2] has as its system HEK293. Description: cells. It counts as functional. The note with it: Homo sapiens, ATCC CRL1573, HEK293; ASSAY_TEST Inhibition of Cell Viability; detection method Resazurin; Fluorescence (ex560/em590); MEDIA DMEM with 10% FBS; plate type 384well; TC; CORNING #3712; time 18 hr. In general terms: Resazurin is reduced to fluorescent resorufin, in cell work by metabolically active cells.

The subject of test [3] is Pseudomonas aeruginosa. Description: microbe, parasite or virus in culture. The note with it: ATCC 27853, 18 h, ASSAY_TEST Inhibition of Bacterial Growth, detection method Absorption (OD600), MEDIA CAMHB, plate type 384well, NBS, CORNING #3640.
Description: Antibacterial activity against Pseudomonas aeruginosa ATCC 27853 (CO-ADD:GN_042); MIC in CAMBH media using NBS plates, by OD(600)
Test [4] concerns Acinetobacter baumannii. Description: microbe, parasite or virus in culture. The note with it: ATCC 19606, 18 h, ASSAY_TEST Inhibition of Bacterial Growth, detection method Absorption (OD600), MEDIA CAMHB, plate type 384well, NBS, CORNING #3640.
Description: Antibacterial activity against Acinetobacter baumannii ATCC 19606 (CO-ADD:GN_034); MIC in CAMBH media using NBS plates, by OD600
Test [5] deals with Cryptococcus neoformans.
Description: Antifungal activity against Cryptococcus neoformans H99 ATCC 208821 (CO-ADD:FG_002); MIC in YNB media using NBS plates, by Resazurin OD(600-570)
The subject of test [6] is Staphylococcus aureus. Description: microbe, parasite or virus in culture. To be noted: ATCC 43300, 18 h, ASSAY_TEST Inhibition of Bacterial Growth, detection method Absorption (OD600), MEDIA CAMHB, plate type 384well, NBS, CORNING #3640.
Description: Antibacterial activity against Staphylococcus aureus MRSA ATCC 43300 (CO-ADD:GP_020); MIC in CAMBH media, using NBS plates, by OD(600)
Test [7] has as its system Candida albicans. Description: microbe, parasite or virus in culture. To be noted: ATCC 90028, ASSAY_TEST Inhibition of Fungal Growth, detection method Absorption (OD530), plate type 384well, NBS, CORNING #3640.
Description: Antifungal activity against Candida albicans ATCC 90028 (CO-ADD:FG_001); MIC in YNB media using NBS plates, by OD630
Test [8] has as its system Klebsiella pneumoniae. The experiment in a line: microbe, parasite or virus in culture. The note with it: ATCC 700603, 18 h, ASSAY_TEST Inhibition of Bacterial Growth, detection method Absorption (OD600), MEDIA CAMHB, plate type 384well, NBS, CORNING #3640.
Description: Antibacterial activity against Klebsiella pneumoniae MDR ATCC 70063 (CO-ADD:GN_003); MIC in CAMBH media using NBS plates, by OD(600)

This passage reports MIC and CC50 results from ChEMBL document CHEMBL4513148, “CO-ADD screening of Stellenbosch University (South Africa) compounds”.

The term CC50 denotes the concentration giving 50% cytotoxicity. The low end stands for greater toxicity to the cells, the high end for lower toxicity to the cells.

Values after ≈ are worked out from the molar mass of the structure shown.

For `CCCCCCCNC(=O)/C=C/NC(=O)[C@H](O)C(C)(C)CO`, the MIC in test [1], in test [3], in test [4], in test [5], in test [6] and in test [7] was > 32 µg/mL throughout. In addition, the MIC in test [8] is > 32 µg/mL. Moreover, in test [2], the CC50 was > 32 µg/mL.

`CC(CNC(=O)[C@H](O)C(C)(C)CO)C(=O)NCCc1ccccc1` (stereo not given in full): the MIC in test [1], in test [3], in test [4], in test [5], in test [6] and in test [7] was > 32 µg/mL in each case. Also, the MIC in test [8] is > 32 µg/mL. In test [2], the CC50 was > 32 µg/mL.

For `CCCCCCCNC(=O)C(C)CNC(=O)[C@H](O)C(C)(C)CO` (stereo not given in full), the MIC in test [1], in test [3], in test [4], in test [5], in test [6] and in test [7] was > 32 µg/mL in each case. Also, in test [8], the MIC is > 32 µg/mL. In addition, the CC50 in test [2] was > 32 µg/mL.

On to `CCCCCCCNC(=O)CC(C)NC(=O)[C@H](O)C(C)(C)CO` (stereo not given in full), for which the MIC in test [1], in test [3], in test [4], in test [5], in test [6] and in test [7] was > 32 µg/mL throughout. In addition, the MIC in test [8] is > 32 µg/mL. In addition, the CC50 in test [2] was > 32 µg/mL.

As for `CCCCCCCN(C)C(=O)CCNC(=O)[C@H](O)C(C)(C)CO`, the MIC in test [1], in test [3], in test [4], in test [5], in test [6] and in test [7] was > 32 µg/mL in each case. In addition, the MIC in test [8] is > 32 µg/mL. Besides, the CC50 in test [2] is > 32 µg/mL.

Turning to `CCCCCCCNC(=O)CCNC(=O)[C@H](O)C(C)(C)CO`, the MIC in test [1] is > 32 µg/mL; in test [3], > 32 µg/mL; in test [4] it was > 32 µg/mL; in test [5] it was > 32 µg/mL; in test [6] it was 0.5 µg/mL (≈ 1.58 µM); in test [7] it was > 32 µg/mL. Also, the MIC in test [8] was > 32 µg/mL. In addition, the CC50 in test [2] is > 32 µg/mL.

In the case of `CCCCCCCNC(=O)CCNC(=O)C(O)C(C)(C)CN` (stereo not given), the MIC in test [1], in test [3], in test [4], in test [5], in test [6] and in test [7] was > 32 µg/mL throughout. The MIC in test [8] was > 32 µg/mL. Also, in test [2], the CC50 is > 32 µg/mL.

As for `CN(CCc1ccccc1)C(=O)CCNC(=O)[C@H](O)C(C)(C)CO`, the MIC in test [1], in test [3], in test [4], in test [5], in test [6] and in test [7] was > 32 µg/mL each time. Also, in test [8], the MIC is > 32 µg/mL. Also, the CC50 in test [2] was > 32 µg/mL.

Consider `CC(C)(CO)[C@@H](O)C(=O)NCCC(=O)NCCc1ccccc1`, for which the MIC in test [1] is > 32 µg/mL; in test [3], > 32 µg/mL; in test [4], > 32 µg/mL; in test [5], > 32 µg/mL; in test [6], 32 µg/mL (≈ 99.3 µM); in test [7] it was > 32 µg/mL. For the same compound, the MIC in test [8] is > 32 µg/mL. Besides, the CC50 in test [2] is > 32 µg/mL.

On to `CCCCCCCNC(=O)CCNC(=O)[C@H](O)C(C)(C)COP(=O)(O)O`, for which the MIC in test [1], in test [3], in test [4], in test [5], in test [6] and in test [7] was > 32 µg/mL in each case. Also, in test [8], the MIC was > 32 µg/mL. Further, in test [2], the half-maximal cytotoxic concentration (CC50) was > 32 µg/mL.
